Where no end group is shown, it is not given here. [ ]: non-standard residue; d: D form. Hyp = O=C(O)[C@@H]1C[C@@H](O)CN1
What was measured:
tibia = experiment: Periosteal tibia injection, DEXA bone mineral density and content; type: in vivo, male Wistar rats; details: 7 days post injection; for changes in BMC (bone mineral content) / changes in BMD (bone mineral density): treated whole tibia in all regions, DEXA, SKELITE powder carrier
Experimental: BCSP1 peptide and BCSP4 peptide were tested at four dose levels, 0.05, 0.5, 1.0 & 5.0 mg/rat or vehicle, n=6 per dose. Sixty male Wistar rats, weighing 90-110 grams, were randomized into two groups, ear tagged and left undisturbed for 1 week prior to the procedure. Food and water are administered ad libitum. Animals weighed 150-190 grams at time of injection. Group 1 received injections of BCSP4 peptide on day 8 of acclimation. Group 2 received injections of BCSP1 peptide on day 9 of acclimation. Dissections were conducted on respective days, 7 days post injection.
The peptides were dissolved in sterile water at 0.05-5 mgs per 100 microliter volume, added to 0.5 mg of a dry synthetic biomaterial compound (SKELITE™) powder and lyophilized onto the carrier. Samples are resuspended in 100 microliters of sterile saline for injection. Delivery of the test compound was made under a general anaesthetic of Isofluorane with oxygen. Using a 0.5 cc insulin syringe fitted with a 28G1/2″ needle, the peptides were deposited onto the periosteal surface of the right medial tibia surface proximal to the knee under the Tibialis cranialis muscle group. Control animals are injected with saline vehicle and a synthetic biomaterial compound (SKELITE™) carrier.
Animals were euthanized with carbon dioxide and dissected to remove the treated right tibia and contra-lateral control limb, 7 days post injection. Muscle and soft connective tissue is dissected away prior to fixation in 70% ethanol.
Each tibia set was scanned as a pair for bone mineral density (BMD) and bone mineral content (BMC) on a Norland Eclipse DEXA scanner in small subject mode. Percent increases in local BMD (FIG. 5) were calculated against the untreated contra-lateral limb. […] This increase in physical size reduces the overall percentage increase in BMD (BMD=BMC/cm^2). Each tibia was analyzed in 3 contiguous regions, proximal, medial and distal as well as whole tibia measurements. Comparisons and statistical assessment of dose versus vehicle were conducted for each peptide for bone forming activity using a standard student t-test.

bovine chondrocytes = experiment: [3H] thymidine incorporation assay, bovine primary chondrocyte cultures; type: cell-based
Experimental: (§1) BCSP1 was tested in vitro to determine effect on bovine and human primary chondrocyte cultures using a [3H] thymidine incorporation assay. Cells were seeded at […] for human chondrocytes (96 well plate) and allowed to attach for 48 h (medium containing 10% fetal bovine serum (FBS). Pre-confluent cells were then treated in quaduplicate with BCSP1 (0, 10, 20 and 40 ng/ml for 48 hrs and with [3H]thymidine ([…]) for the last 24 hrs (medium containing 2% FBS). The culture medium used was Dulbecco's Modified Eagle Medium (DMEM) (Gibco, Cat. #23800) containing 200 units/ml Penicillin, 200 ug/ml Streptomycin and 10% FBS for growth and 2% FBS for dosing.

human chondrocytes = experiment: [3H] thymidine incorporation assay, human primary chondrocyte cultures; type: cell-based
Experimental: as §1

[1] = tested on: osteoblast cultures derived from rat bone marrow; experiment: Osteoblast proliferation, BrdU incorporation, bone marrow derived cultures; type: cell-based; details: 24 hr exposure
Experimental: (§2) BCSP1 was tested in three assays to understand the mechanism of bone stimulation by the peptide. Dose ranges in the microgram range were used to generate dose response curves. All assays used primary rat osteoblast cultures from bone marrow or calvaria.
(§3) Osteoblast proliferation was accessed using a DNA based assay which measures bromodeoxyuridine (BrdU) incorporation. Differentiation of osteoblasts was determined using the mid to late stage bone marker Alkaline Phosphatase. Late stage differentiation and mineralization was determined using a Bone Nodule formation assay (calvaria only).
Cells were cultured for four days prior to a 24 hr exposure to the peptide (FIG. 11).

[2] = tested on: osteoblast cultures derived from rat calvaria; experiment: Osteoblast proliferation, BrdU incorporation, calvaria derived cultures; type: cell-based; details: dose range of 1.3-6.4 ng/ml; 24 hr exposure
Experimental: as §2, §3
Cells were cultured for four days prior to a 24 hr exposure to the peptide at a dose range from 100 μg/ml to 1.3 ng/ml of peptide (FIG. 12).

[3] = tested on: rat bone marrow derived osteoblasts; experiment: Cell bound alkaline phosphatase, bone marrow derived osteoblasts; type: cell-based
Experimental: as §2, §3
(§4) Cell bound alkaline phosphatase from cell lysates of rat bone marrow derived osteoblasts and rat calvaria derived osteoblasts. BCSP1 was provided at a dose range of 100 μg/ml to 1 μg/mL. Cells were cultured for 3 days prior to a 48 hr exposure to the peptide.

[4] = tested on: rat calvaria derived osteoblasts; experiment: Cell bound alkaline phosphatase, calvaria derived osteoblasts; type: cell-based; details: rat calvaria cultures (RC); 10 μg/ml to 100 μg/ml; 48 hr exposure
Experimental: as §2, §3, §4

rat calvaria cultures = experiment: Bone nodule formation assay, alizarin red staining; type: cell-based; details: 10 days
Experimental: as §2, §3
Rat calvaria cultures were maintained for 10 days in the presence of BCSP1 at a dose range of 1 ng/ml to 100 μg/ml with dosing provided at each fluid change. Mineralized bone nodules were detected by staining with alizarin red. Image analysis was conducted with an Alpha Imager 2000™ to count and quantify nodule area. […] Increased alkaline phosphatase would lead to increases in total mineralized area.

Substance: NGLPGPIGP* (NGLPGPIG[Hyp]) [BCSP1, P* is hydroxyproline]
- bone size (tibia; treated tibia): increase in bone size
- proliferation of chondrocyte cells (bovine chondrocytes; 10, 20 and 40 ng/ml, 48 hrs): dose dependent increase
- effect on proliferation (bovine chondrocytes; doses in the nanogram range): up to 3 fold
- proliferation of chondrocyte cells (human chondrocytes; 10, 20 and 40 ng/ml, 48 hrs): dose dependent increase
- effect on proliferation (human chondrocytes; doses in the nanogram range): up to 3 fold
- increase in DNA synthesis ([1]; rat bone marrow osteoblasts, up to 100 μg/ml): ≤ 75%
- osteoblast proliferation ([1]; to 100 μg/ml): dose response increase
- osteoblast proliferation [2]: statistically significant increase
- specific activity of alkaline phosphatase ([3]; further experimentation, not shown, culture not specified): increase in specific activity
- alkaline phosphatase over control (vehicle) ([3]; rat bone marrow cultures (RBM), 1 μg/ml to 100 μg/ml, 48 hr exposure): dose dependent response
- alkaline phosphatase over control (vehicle) [4]: dose dependent response
- number of bone nodules formed (rat calvaria cultures; 1 ng/ml and 10 ng/ml range): slight increase
- number of bone nodules formed (rat calvaria cultures; 1 ng/ml to 100 μg/ml): minimal changes
- total mineralized bone nodule area (size of nodules) (rat calvaria cultures; 1 ng/ml to 100 μg/ml, dose dependent): significantly increased

Substance: PGPIG [BCSP7]
- changes in BMC (bone mineral content) (tibia): Significant changes
- changes in BMD (bone mineral density) (tibia): Significant changes

Substance: PGPIGP [BCSP9]
- changes in BMC (bone mineral content) (tibia): Significant changes
- changes in BMD (bone mineral density) (tibia): Significant changes

Substance: PGPIGPPGPR [BCSP10]
- changes in BMC (bone mineral content) (tibia): Significant changes
- changes in BMD (bone mineral density) (tibia): Significant changes

Source: patent US9133236B2, “Connective tissue stimulating peptides” (priority 2002, dated 2015)
